According to patent publication US5304470A, “Process for the enzymatic preparation of protected and unprotected di- and oligopeptides in aqueous solutions” (Forschungszentrum Juelich GmbH, priority 1991, dated 1994):

Description: (§1) The ethyl ester of tyrosine was reacted.
as §1, §1

Row | solubility in water [mM] | SMILES
1 | > 1000 | CCOC(=O)C(CCCNC(=N)N)NC(=O)C=CC(=O)O (stereo not drawn) [Mal-Arg-OEt]
2 | > 700 | CCOC(=O)C(Cc1ccccc1)NC(=O)C=CC(=O)O (stereo not drawn) [Mal-Phe-OEt]
3 | > 700 | CCOC(=O)[C@H](Cc1c[nH]c2ccccc12)NC(=O)/C=C\C(=O)O [Mal-Trp-OEt]
4 | > 600 | CCOC(=O)[C@H](Cc1ccc(O)cc1)NC(=O)/C=C\C(=O)O [Mal-Tyr-OEt]
